Reference: article PMC9942557, “Bolaamphiphile Analogues of 12-bis-THA Cl2 Are Potent Antimicrobial Therapeutics with Distinct Mechanisms of Action against Bacterial, Mycobacterial, and Fungal Pathogens” (mSphere, 2022)

Legend:
C. tropicalis 8760 = assay: Broth microdilution MIC; format: cell-based; settings: C. tropicalis 8760
P. aeruginosa RP73 = assay: Checkerboard synergy assay; format: cell-based, Pseudomonas aeruginosa
C. albicans 3179 = assay: Broth microdilution MIC; format: cell-based, Candida albicans; settings: C. albicans 3179
P. aeruginosa NCTC 13437 = assay: Checkerboard synergy assay; format: cell-based, Pseudomonas aeruginosa
[1] = system: Escherichia coli NCTC 12923; assay: Broth microdilution MIC; format: cell-based
[2] = system: Pseudomonas aeruginosa NCTC 13437; assay: Broth microdilution MIC; format: cell-based
C. auris temp probe = assay: Broth microdilution MIC; format: cell-based, Candida auris; settings: C. auris temp probe
C. parapsilosis = assay: Broth microdilution MIC; format: cell-based
[3] = system: Ac. pleuropneumoniae 2356; assay: Checkerboard synergy assay (BHI, 5% FBS, 0.01% NAD); format: cell-based, Actinobacillus pleuropneumoniae
[4] = system: Ac. pleuropneumoniae 2331; assay: as above; format: cell-based, Actinobacillus pleuropneumoniae
[5] = system: EMR Staphylococcus aureus 15 NCTC 13616; assay: Broth microdilution MIC; format: cell-based; settings: EMR Staphylococcus aureus 15 NCTC 13616
[6] = system: Ac. pleuropneumoniae Shope; assay: Checkerboard synergy assay (BHI, 5% FBS, 0.01% NAD); format: cell-based, Actinobacillus pleuropneumoniae
[7] = system: VR Enterococcus faecium NCTC 12204; assay: Broth microdilution MIC; format: cell-based; settings: VR Enterococcus faecium NCTC 12204
[8] = system: Pseudomonas aeruginosa PAO1; assay: Broth microdilution MIC; format: cell-based
G. vaginalis KC1 = assay: Anaerobic broth microdilution MIC (BHI, 5% horse serum); format: cell-based, Gardnerella vaginalis
C. albicans 3281 = assay: Broth microdilution MIC; format: cell-based, Candida albicans; settings: C. albicans 3281
G. vaginalis KC2 = assay: Anaerobic broth microdilution MIC (BHI, 5% horse serum); format: cell-based, Gardnerella vaginalis
P. aeruginosa PAO1 = assay: Checkerboard synergy assay; format: cell-based, Pseudomonas aeruginosa
Klebsiella pneumoniae M6 = assay: Broth microdilution MIC; format: cell-based
[9] = system: VR Enterococcus faecalis NCTC 12201; assay: Broth microdilution MIC; format: cell-based; settings: VR Enterococcus faecalis NCTC 12201
[10] = system: Klebsiella pneumoniae NCTC 13368; assay: Broth microdilution MIC; format: cell-based
G. vaginalis KC3 = assay: Anaerobic broth microdilution MIC (BHI, 5% horse serum); format: cell-based, Gardnerella vaginalis
EMRSA-15 = format: in vivo, Galleria mellonella
[11] = system: Prevotella bivia NCTC 11156; assay: Anaerobic broth microdilution MIC (BHI, 5% horse serum); format: cell-based
G. vaginalis NCTC 10287 = assay: as above; format: cell-based, Gardnerella vaginalis
HeLa = assay: In vitro toxicity for cell line; format: cell-based, human; settings: average ± standard error from 3 independent repeats
Text: (§1) TABLE 2 Toxicity of bolaamphiphiles for two cell lines^a | column: Toxicity (EC50 [μg/ml]) of: / 12-bis-THA Cl2; Toxicity (EC50 [μg/ml]) of: / Dequalinium; Toxicity (EC50 [μg/ml]) of: / Quino-bola; Toxicity (EC50 [μg/ml]) of: / Penta-bola; Toxicity (EC50 [μg/ml]) of: / Hepta-bola; Toxicity (EC50 [μg/ml]) of: / Octa-bola; Toxicity (EC50 [μg/ml]) of: / Octa-C10; Toxicity (EC50 [μg/ml]) of: / Octa-C8; Toxicity (EC50 [μg/ml]) of: / Octa-C6

HEK293 = assay: In vitro toxicity for cell line; format: cell-based, human; settings: HEK293; average ± standard error from 3 independent repeats
Text: as §1

C. krusei 3876 = assay: Broth microdilution MIC; format: cell-based
C. glabrata 8018 = assay: Broth microdilution MIC; format: cell-based; settings: C. glabrata 8018
[12] = system: VS Enterococcus faecalis NCTC 775; assay: Broth microdilution MIC; format: cell-based
[13] = system: Acinetobacter baumannii AYE; assay: Broth microdilution MIC; format: cell-based; settings: Acinetobacter baumannii AYE
[14] = system: EMR Staphylococcus aureus 16 NCTC 13277; assay: Broth microdilution MIC; format: cell-based; settings: EMR Staphylococcus aureus 16 NCTC 13277
[15] = system: Acinetobacter baumannii ATCC 17978; assay: Broth microdilution MIC; format: cell-based
[16] = system: Ac. pleuropneumoniae 3370; assay: Checkerboard synergy assay (BHI, 5% FBS, 0.01% NAD); format: cell-based, Actinobacillus pleuropneumoniae
C. parapsilosis 3209 = assay: Broth microdilution MIC; format: cell-based
A. baumannii ATCC 17978 = assay: G. mellonella burn wound infection model; format: in vivo, Galleria mellonella; settings: alone; for larvae rescued: 96 h
Text: In addition to the intrahemocoelic infection/therapy models described above, a recently described G. mellonella burn wound model was adopted ([37]). The burn was created using the flat head of a nail, which was heated in a blue Bunsen burner flame until red hot, cooled for 15 s, and superficially applied for 2 s to generate a 2-mm^2 burn. Larvae were then infected with a single colony of A. baumannii ATCC 17978 applied directly to the burn site, or sterile phosphate-buffered saline was applied as a control. Treatment was applied topically 1 h after infection in a volume of 5 μL. Survival was monitored over 96 h.

Question: For `Nc1c2c([n+](CCCCCCCCCC[n+]3c4c(c(N)c5ccccc53)CCCCCC4)c3ccccc13)CCCCCC2` [Octa-C10], which MIC (C. tropicalis 8760) is on record?
Answer: Its MIC is 0.25 µg/mL.

Question: And the “MIC alone Bolalipid” value (P. aeruginosa RP73)?
Answer: The value was 8 µg/mL.

Question: What about the MIC (C. albicans 3179) of the same compound?
Answer: Its MIC is 0.5 µg/mL.

Question: And the “MIC alone Bolalipid” value (P. aeruginosa NCTC 13437)?
Answer: The value was 32 µg/mL.

Question: And the MIC [1]?
Answer: Its MIC is 2 µg/mL.

Question: And the MIC [2]?
Answer: The MIC was greater than 32 µg/mL.

Question: What about the MIC (C. auris temp probe) of the same compound?
Answer: Its MIC is 4 µg/mL.

Question: What about the MIC (C. parapsilosis) of the same compound?
Answer: The MIC was 4 µg/mL.

Question: And the “MIC alone Bolalipid” value ([3]; Octa-C10/enrofloxacin)?
Answer: Its value is 4 to 8 µg/mL.

Question: And the “MIC alone Bolalipid” value ([3]; Octa-C10/streptomycin)?
Answer: Its value is 4 to 8 µg/mL.

Question: What about the “MIC alone Bolalipid” value ([4]; Octa-C10/enrofloxacin) of the same compound?
Answer: Its value is 4 to 8 µg/mL.

Question: And the “MIC alone Bolalipid” value ([4]; Octa-C10/streptomycin)?
Answer: Its value is 4 to 8 µg/mL.

Question: What about the MIC [5] of the same compound?
Answer: Its MIC is 0.25 µg/mL.

Question: And the “MIC alone Bolalipid” value ([6]; Octa-C10/enrofloxacin)?
Answer: The value was 1 µg/mL.

Question: And the “MIC alone Bolalipid” value ([6]; Octa-C10/streptomycin)?
Answer: Its value is 1 µg/mL.

Question: What about the MIC [7] of the same compound?
Answer: Its MIC is 0.25 µg/mL.

Question: What about the MIC [8] of the same compound?
Answer: Its MIC is greater than 32 µg/mL.

Question: And the MIC (G. vaginalis KC1)?
Answer: Its MIC is 0.5 to 1 µg/mL.

Question: And the MIC (C. albicans 3281)?
Answer: Its MIC is 1 µg/mL.

Question: What about the MIC (G. vaginalis KC2) of the same compound?
Answer: The MIC was 2 µg/mL.

Question: And the “MIC alone Bolalipid” value (P. aeruginosa PAO1)?
Answer: Its value is 64 µg/mL.

Question: And the MIC (Klebsiella pneumoniae M6)?
Answer: Its MIC is 16 µg/mL.

Question: What about the MIC [9] of the same compound?
Answer: The MIC was 1 µg/mL.

Question: What about the MIC [10] of the same compound?
Answer: The MIC was 32 µg/mL.

Question: What about the MIC (G. vaginalis KC3) of the same compound?
Answer: Its MIC is 0.5 µg/mL.

Question: What about the protection (EMRSA-15; in vivo) of the same compound?
Answer: Its protection is “none of them providing significant protection”.

Question: What about the infected larvae rescued (EMRSA-15; lowest dose, 0.1 mg/kg) of the same compound?
Answer: Its infected larvae rescued is “approximately a third”.

Question: What about the MIC [11] of the same compound?
Answer: Its MIC is 0.125 µg/mL.

Question: What about the MIC (G. vaginalis NCTC 10287) of the same compound?
Answer: Its MIC is 0.5 to 1 µg/mL.

Question: And the “Toxicity (EC50)” value (HeLa)?
Answer: Its value is 10.7 ± 0.3 µg/mL.

Question: And the “Toxicity (EC50)” value (HEK293)?
Answer: Its value is 7.0 ± 0.5 µg/mL.

Question: What about the MIC (C. krusei 3876) of the same compound?
Answer: The MIC was 2 µg/mL.

Question: What about the MIC (C. glabrata 8018) of the same compound?
Answer: Its MIC is 0.5 µg/mL.

Question: And the MIC [12]?
Answer: Its MIC is 2 µg/mL.

Question: What about the MIC [13] of the same compound?
Answer: The MIC was 16 µg/mL.

Question: And the MIC [14]?
Answer: The MIC was 0.25 µg/mL.

Question: What about the MIC [15] of the same compound?
Answer: Its MIC is 8 µg/mL.

Question: What about the “MIC alone Bolalipid” value ([16]; Octa-C10/enrofloxacin) of the same compound?
Answer: The value was 4 to 8 µg/mL.

Question: What about the “MIC alone Bolalipid” value ([16]; Octa-C10/streptomycin) of the same compound?
Answer: The value was 4 to 8 µg/mL.

Question: What about the MIC (C. parapsilosis 3209) of the same compound?
Answer: The MIC was 2 µg/mL.

Question: What about the larvae rescued (A. baumannii ATCC 17978; 5 mg/kg topical) of the same compound?
Answer: The larvae rescued was 48%.

Question: What about the larvae rescued (A. baumannii ATCC 17978; 10 mg/kg topical) of the same compound?
Answer: The larvae rescued was 60%.

Question: What about the protection (A. baumannii ATCC 17978; lower doses (2.5 and 1.25 mg/kg)) of the same compound?
Answer: Its protection is “ineffective”.
